The supplement of paper PMC10307832

What was measured:
Assay in all cases: relative viability (nuclei count vs DMSO), 5 days (fraction); higher = more cells survive
[1] = compound: Cc1ccc2nc(NCCN)c3ncc(C)n3c2c1 + CC(=O)c1c(C)c2cnc(Nc3ccc(N4CCNCC4)cn3)nc2n(C2CCCC2)c1=O [Palbociclib] (partner 0.5 µM)
In short: (§1)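 Dosing by pin tool came one day after lung cancer cell lines were seeded in 1536-well plates, using either one drug or a fixed anchor-drug dose plus five library-drug doses (not always all listed) in √10 steps. After 5 days, nuclei were counted on 4× images. Relative viability is treated-well nuclei count divided by vehicle-well nuclei count, and values are medians of duplicate plates.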

[2] = compound: Cc1ccc2nc(NCCN)c3ncc(C)n3c2c1 + Cc1nc(NC(=O)N2CCC[C@H]2C(N)=O)sc1-c1ccnc(C(C)(C)C(F)(F)F)c1 [Alpelisib] (partner 2 µM)
In short: as §1

Salubrinal + Pictilisib = compound: O=C(/C=C/c1ccccc1)NC(NC(=S)Nc1cccc2cccnc12)C(Cl)(Cl)Cl [Salubrinal] + CS(=O)(=O)N1CCN(Cc2cc3nc(-c4cccc5[nH]ncc45)nc(N4CCOCC4)c3s2)CC1 [Pictilisib] (partner 1 µM)
In short: as §1

Salubrinal + Pemetrexed = compound: O=C(/C=C/c1ccccc1)NC(NC(=S)Nc1cccc2cccnc12)C(Cl)(Cl)Cl [Salubrinal] + Nc1nc2[nH]cc(CCc3ccc(C(=O)N[C@@H](CCC(=O)O)C(=O)O)cc3)c2c(=O)[nH]1 [Pemetrexed] (partner 0.2 µM)
In short: as §1

| Cell Line | relative viability ([1]; first compound 0.04 µM) | relative viability ([1]; first compound 0.1265 µM) | relative viability ([1]; first compound 0.4 µM) | relative viability ([1]; first compound 1.265 µM) | relative viability ([1]; first compound 4 µM) | relative viability ([2]; first compound 0.04 µM) | relative viability ([2]; first compound 0.1265 µM) | relative viability ([2]; first compound 0.4 µM) | relative viability ([2]; first compound 1.265 µM) | relative viability ([2]; first compound 4 µM) | relative viability (Salubrinal + Pictilisib; first compound 0.08 µM) | relative viability (Salubrinal + Pictilisib; first compound 0.253 µM) | relative viability (Salubrinal + Pictilisib; first compound 0.8 µM) | relative viability (Salubrinal + Pictilisib; first compound 2.53 µM) | relative viability (Salubrinal + Pictilisib; first compound 8 µM) | relative viability (Salubrinal + Pemetrexed; first compound 0.08 µM) | relative viability (Salubrinal + Pemetrexed; first compound 0.253 µM) | relative viability (Salubrinal + Pemetrexed; first compound 0.8 µM) | relative viability (Salubrinal + Pemetrexed; first compound 2.53 µM) | relative viability (Salubrinal + Pemetrexed; first compound 8 µM) |
| --- | --- | --- | --- | --- | --- | --- | --- | --- | --- | --- | --- | --- | --- | --- | --- | --- | --- | --- | --- | --- |
| LXF-289 | 0.605 | 0.648 | 0.604 | 0.638 | 0.556 | 1.1 | 1.01 | 0.984 | 1.06 | 1.03 | 0.871 | 0.728 | 0.829 | 0.778 | 0.731 | 1.06 | 0.891 | 0.988 | 0.851 | 0.851 |
| NCI-H23 | 0.501 | 0.562 | 0.437 | 0.469 | 0.309 | 0.893 | 0.572 | 0.797 | 0.614 | 0.696 | 0.511 | 0.583 | 0.548 | 0.442 | 0.486 | 0.674 | 0.633 | 0.919 | 0.653 | 0.421 |
| NCI-H322M | 0.506 | 0.491 | 0.512 | 0.468 | 0.542 | 0.948 | 0.755 | 0.798 | 0.641 | 0.766 | 0.476 | 0.541 | 0.578 | 0.539 | 0.498 | 0.699 | 0.578 | 0.684 | 0.574 | 0.544 |
| NCI-H358 | 0.122 | 0.121 | 0.123 | 0.145 | 0.131 | 0.844 | 0.835 | 0.902 | 0.952 | 0.626 | 0.328 | 0.455 | 0.356 | 0.309 | 0.373 | 0.181 | 0.176 | 0.157 | 0.153 | 0.168 |
| NCI-H441 | 0.251 | 0.271 | 0.181 | 0.26 | 0.248 | 0.646 | 0.719 | 0.843 | 0.746 | 0.928 | 0.479 | 0.432 | 0.705 | 0.534 | 0.294 | 0.271 | 0.274 | 0.274 | 0.275 | 0.255 |
| NCI-H460 | 0.114 | 0.152 | 0.147 | 0.204 | 0.0833 | 0.54 | 0.495 | 0.476 | 0.382 | 0.374 | 0.261 | 0.296 | 0.398 | 0.482 | 0.518 | 0.0573 | 0.0837 | 0.0626 | 0.0636 | 0.0643 |
| NCI-H520 | 0.233 | 0.222 | 0.215 | 0.212 | 0.243 | 0.882 | 1.05 | 0.957 | 0.781 | 1.03 | 0.376 | 0.212 | 0.338 | 0.302 | 0.316 | 0.762 | 0.523 | 0.777 | 0.716 | 0.734 |
| NCI-H647 | 0.41 | 0.412 | 0.405 | 0.413 | 0.296 | 1.05 | 1.01 | 1.06 | 1.26 | 1 | 0.298 | 0.421 | 0.421 | 0.501 | 0.427 | 0.199 | 0.174 | 0.184 | 0.196 | 0.147 |
| NCI-H650 | 0.368 | 0.316 | 0.258 | 0.304 | 0.332 | 1.15 | 0.922 | 1.1 | 0.997 | 0.975 | 0.678 | 1.1 | 0.968 | 0.916 | 0.842 | 1.03 | 1.14 | 1.05 | 1.05 | 0.895 |
| NCI-H661 | 0.423 | 0.452 | 0.407 | 0.439 | 0.477 | 0.82 | 0.79 | 0.812 |  | 0.474 | 0.434 | 0.196 | 0.443 | 0.384 | 0.569 | 0.942 | 0.808 | 0.936 | 0.89 | 0.91 |
| NCI-H838 | 0.216 | 0.233 | 0.233 | 0.223 | 0.264 | 1.01 | 0.961 | 0.938 | 0.883 | 0.899 | 0.361 | 0.408 | 0.496 | 0.435 | 0.282 | 0.253 | 0.231 | 0.257 | 0.267 | 0.23 |
| NCI-H1355 | 0.46 | 0.4 | 0.406 | 0.409 | 0.376 | 0.783 | 0.862 | 0.819 | 0.763 | 0.797 | 0.366 | 0.433 | 0.45 | 0.426 | 0.425 | 1.11 | 1.02 | 1.1 | 1.03 | 1.09 |
| NCI-H1395 | 0.647 | 0.613 | 0.597 | 0.546 | 0.557 | 1.05 | 1.3 | 1.08 | 1.19 | 0.888 | 0.621 | 0.651 | 0.609 | 0.603 | 0.504 | 0.96 | 1.09 | 1.03 | 0.984 | 0.718 |
| NCI-H1437 | 0.3 | 0.315 | 0.296 | 0.248 | 0.287 | 0.926 | 0.914 | 1.02 | 0.904 | 0.907 | 0.449 | 0.484 | 0.415 | 0.417 | 0.328 | 0.413 | 0.273 | 0.292 | 0.322 | 0.297 |
| NCI-H1651 | 0.545 | 0.515 | 0.518 | 0.512 | 0.512 | 0.996 | 0.885 | 0.905 | 0.936 | 0.834 | 0.822 | 0.486 | 0.667 |  | 0.423 | 0.655 | 0.393 | 0.781 | 0.604 | 0.6 |
| NCI-H1666 | 0.664 | 0.675 | 0.598 | 0.611 | 0.665 | 0.836 | 0.906 | 1.13 | 0.945 | 0.613 | 0.398 | 0.491 | 0.485 | 0.404 | 0.45 | 0.837 | 0.804 | 0.989 | 0.864 | 0.845 |
